We go through 16 molecules from PubChem BioAssay AID248 (DTP/NCI, 2004).

The test relates to L1210 leukemia ip in BDF1 mice, survival T/C. Put plainly: NCI In Vivo Anticancer Drug Screen. Data for tumor model L1210 Leukemia (intraperitoneal) in B6D2F1 (BDF1) mice. Particulars: endpoint: mean survival time, higher = longer survival. In outline: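 Ratio derived from survival: compound-dosed mice over vehicle-dosed mice, all bearing a transplantable tumor.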
[1] abbreviates: dose: 100.0 mg/kg/injection, schedule: Q04DX003 (ip), vehicle: saline with Tween-80.
Where [2] appears, read: dose: 200.0 mg/kg/injection, schedule: Q04DX003 (ip), vehicle: saline with Tween-80.
[3] abbreviates: dose: 400.0 mg/kg/injection, schedule: Q04DX003 (ip), vehicle: saline with Tween-80.
The mark [4] stands for this setting: dose: 100.0 mg/kg/injection, schedule: Q01DX001 (ip), vehicle: saline.
Where [5] appears, read: dose: 100.0 mg/kg/injection, schedule: Q01DX009 (ip), vehicle: Klucel (hydroxypropylcellulose) (HPC).
Setting [6] is: dose: 200.0 mg/kg/injection, schedule: Q01DX009 (ip), vehicle: Klucel (hydroxypropylcellulose) (HPC).
Where [7] appears, read: dose: 100.0 mg/kg/injection, schedule: Q04DX003 (ip), vehicle: Klucel (hydroxypropylcellulose) (HPC).

Inconclusive results and toxic doses are left out.

In the case of `CC(C)(C)OC1C2C=CC1C1C2C(C)(C)C1(C)C` (stereo not given), the T/C runs as follows: (dose: 100.0 mg/kg/injection, schedule: Q01DX001 (ip), vehicle: saline with Tween-80) 90 % of control; (dose: 200.0 mg/kg/injection, schedule: Q01DX001 (ip), vehicle: saline with Tween-80) 90 % of control.
For the molecule `CCOC(=O)C(Cc1ccccc1)NC(=O)N(CCCl)CCCl` (stereo not given), the T/C runs as follows: (dose: 62.5 mg/kg/injection, schedule: Q01DX Z (ip), vehicle: water) 97 % of control; (dose: 125.0 mg/kg/injection, schedule: Q01DX Z (ip), vehicle: water) 95 % of control; (dose: 250.0 mg/kg/injection, schedule: Q01DX Z (ip), vehicle: water) 106 % of control.
As for `Cc1ccc(CNC(=O)Cc2ccccc2)cc1C`, the T/C is, setting by setting: (dose: 100.0 mg/kg/injection, schedule: Q04DX002 (ip), vehicle: saline with Tween-80) 100 % of control; (dose: 200.0 mg/kg/injection, schedule: Q04DX002 (ip), vehicle: saline with Tween-80) 100 % of control; (dose: 400.0 mg/kg/injection, schedule: Q04DX002 (ip), vehicle: saline with Tween-80) 110 % of control.
For the molecule `CC(=O)Nc1nc(=O)n(CC(=O)c2cccs2)cc1F`, the T/C was 98 % of control (dose: 100.0 mg/kg/injection, schedule: Q01DX009 (ip), vehicle: saline with Tween-80); 102 % of control under setting [1]; 98 % of control (dose: 200.0 mg/kg/injection, schedule: Q01DX009 (ip), vehicle: saline with Tween-80); 97 % of control under setting [2]; 101 % of control under setting [3].
On to `CCCCC(=O)N/N=C/c1ccc(Cl)cc1Cl`, for which the T/C under setting [4] is 91 % of control.
Regarding `O=C1C2C3CCC(O3)C2C(=O)N1CCOS(=O)(=O)c1ccc(Cl)cc1` (stereo not given), the T/C (dose: 75.0 mg/kg/injection, schedule: Q01DX009 (ip), vehicle: carboxymethylcellulose (CMC)) was 93 % of control; the T/C (dose: 100.0 mg/kg/injection, schedule: Q04DX003 (ip), vehicle: carboxymethylcellulose (CMC)) is 100 % of control; the T/C (dose: 150.0 mg/kg/injection, schedule: Q01DX009 (ip), vehicle: carboxymethylcellulose (CMC)) was 94 % of control; the T/C (dose: 200.0 mg/kg/injection, schedule: Q04DX003 (ip), vehicle: carboxymethylcellulose (CMC)) was 102 % of control; the T/C (dose: 300.0 mg/kg/injection, schedule: Q01DX009 (ip), vehicle: carboxymethylcellulose (CMC)) was 91 % of control; the T/C (dose: 400.0 mg/kg/injection, schedule: Q04DX003 (ip), vehicle: carboxymethylcellulose (CMC)) is 96 % of control.
Take `O=[N+]([O-])c1ccc(/C=N/Nc2ccnc3cc(Cl)ccc23)s1`: the T/C is 96 % of control (dose: 100.0 mg/kg/injection, schedule: Q04DX003 (ip), vehicle: saline); 96 % of control (dose: 200.0 mg/kg/injection, schedule: Q04DX003 (ip), vehicle: saline); 96 % of control (dose: 400.0 mg/kg/injection, schedule: Q04DX003 (ip), vehicle: saline).
In the case of `CN(C)/N=N/c1nc(CCCc2ccccc2)[nH]c1C(N)=O`, the T/C was 98 % of control under setting [1], 103 % of control under setting [2] and 110 % of control under setting [3].
Regarding `On1nc(-c2ccccc2)c(-c2c(-c3ccccc3)nn(O)c2-c2ccccc2)c1-c1ccccc1`, the T/C by setting is: (dose: 50.0 mg/kg/injection, schedule: Q01DX009 (ip), vehicle: Klucel (hydroxypropylcellulose) (HPC)) 90 % of control; under setting [5], 90 % of control; under setting [6], 97 % of control.
As for `CC(Cc1ccccc1)N(C)N` (stereo not given), the T/C (dose: 1.56 mg/kg/injection, schedule: Q01DX009 (ip), vehicle: saline) is 94 % of control; the T/C (dose: 3.12 mg/kg/injection, schedule: Q01DX009 (ip), vehicle: saline) was 102 % of control; the T/C (dose: 6.25 mg/kg/injection, schedule: Q01DX009 (ip), vehicle: saline) was 91 % of control; the T/C (dose: 12.5 mg/kg/injection, schedule: Q01DX009 (ip), vehicle: saline) is 88 % of control; the T/C (dose: 25.0 mg/kg/injection, schedule: Q01DX009 (ip), vehicle: saline) was 102 % of control.
As to `O=C(Oc1c(-c2ccccc2)[nH]c2ccccc12)c1ccc([N+](=O)[O-])cc1`, the T/C is 104 % of control (dose: 100.0 mg/kg/injection, schedule: Q04DX002 (ip), vehicle: Klucel (hydroxypropylcellulose) (HPC)); 101 % of control (dose: 200.0 mg/kg/injection, schedule: Q04DX002 (ip), vehicle: Klucel (hydroxypropylcellulose) (HPC)); 90 % of control (dose: 400.0 mg/kg/injection, schedule: Q04DX002 (ip), vehicle: Klucel (hydroxypropylcellulose) (HPC)).
For the molecule `O=C(O)C(O)C(=O)O.[NH2-].[NH2-].[Pt+2]`, the T/C was 94 % of control (dose: 1.0 mg/kg/injection, schedule: Q01DX001 (ip), vehicle: other); 95 % of control (dose: 2.0 mg/kg/injection, schedule: Q01DX001 (ip), vehicle: other); 101 % of control (dose: 2.0 mg/kg/injection, schedule: Q01DX009 (ip), vehicle: other); 98 % of control (dose: 4.0 mg/kg/injection, schedule: Q01DX001 (ip), vehicle: other); 101 % of control (dose: 4.0 mg/kg/injection, schedule: Q01DX009 (ip), vehicle: other); 98 % of control (dose: 8.0 mg/kg/injection, schedule: Q01DX001 (ip), vehicle: other). Besides, the T/C was 101 % of control (dose: 8.0 mg/kg/injection, schedule: Q01DX009 (ip), vehicle: other); 101 % of control (dose: 16.0 mg/kg/injection, schedule: Q01DX001 (ip), vehicle: other); 112 % of control (dose: 25.0 mg/kg/injection, schedule: Q04DX003 (ip), vehicle: saline); 109 % of control (dose: 32.0 mg/kg/injection, schedule: Q01DX001 (ip), vehicle: other); 187 % of control (dose: 32.0 mg/kg/injection, schedule: Q01DX009 (ip), vehicle: other); 122 % of control (dose: 40.0 mg/kg/injection, schedule: Q01DX001 (ip), vehicle: other). The T/C runs as follows: (dose: 60.0 mg/kg/injection, schedule: Q01DX001 (ip), vehicle: other) 158 % of control; (dose: 80.0 mg/kg/injection, schedule: Q01DX001 (ip), vehicle: other) 168 % of control; (dose: 100.0 mg/kg/injection, schedule: Q01DX001 (ip), vehicle: other) 114 % of control; (dose: 128.0 mg/kg/injection, schedule: Q01DX001 (ip), vehicle: other) 121 % of control.
Regarding `CC(C)(O)C1(O)CCCC1`, the T/C runs as follows: (dose: 50.0 mg/kg/injection, schedule: Q01DX001 (ip), vehicle: saline) 95 % of control; under setting [4], 93 % of control; (dose: 200.0 mg/kg/injection, schedule: Q01DX001 (ip), vehicle: saline) 101 % of control; (dose: 400.0 mg/kg/injection, schedule: Q01DX001 (ip), vehicle: saline) 93 % of control.
For `O=C(c1ccccc1)C1CCCCCC1`, the T/C reads like this: under setting [5], 108 % of control; under setting [7], 94 % of control; under setting [6], 102 % of control; (dose: 200.0 mg/kg/injection, schedule: Q04DX003 (ip), vehicle: Klucel (hydroxypropylcellulose) (HPC)) 98 % of control; (dose: 400.0 mg/kg/injection, schedule: Q01DX009 (ip), vehicle: Klucel (hydroxypropylcellulose) (HPC)) 104 % of control; (dose: 400.0 mg/kg/injection, schedule: Q04DX003 (ip), vehicle: Klucel (hydroxypropylcellulose) (HPC)) 98 % of control.
Take `CSc1ncc(C(N)=O)c(N=C(C)C)n1`: the T/C is, setting by setting: (dose: 12.5 mg/kg/injection, schedule: Q04DX003 (ip), vehicle: Klucel (hydroxypropylcellulose) (HPC)) 96 % of control; (dose: 25.0 mg/kg/injection, schedule: Q04DX003 (ip), vehicle: Klucel (hydroxypropylcellulose) (HPC)) 96 % of control; (dose: 50.0 mg/kg/injection, schedule: Q04DX003 (ip), vehicle: Klucel (hydroxypropylcellulose) (HPC)) 94 % of control; under setting [7], 97 % of control.
With `C1=CC2C3C=CC(C3)C2C1` (stereo not given), the T/C is, setting by setting: (dose: 50.0 mg/kg/injection, schedule: Q04DX003 (ip), vehicle: saline with Tween-80) 95 % of control; under setting [1], 95 % of control; under setting [2], 93 % of control.
